According to patent US20130289023A1, “METHOD FOR TREATING BRAIN TUMOR” (priority 2012, published 2013):
Where two headings read alike, the source gives them in different places.

How the values were obtained:
GBM8401 cells [1] = assay: MTT cell viability assay in GBM8401; conditions: for cell death: GBM8401, 1 to 10 μM, 72 hr, FIG. 1(B)
Protocol: To examine the cytotoxicity of anti-psychotic drugs on malignant glioma, GBM8401 cells were treated with 21 anti-psychotic drugs at 10 μM, respectively, for 72 hr.

U87MG cells [2] = assay: Cell viability / cell death in U87MG; type: cell-based; conditions: 1 to 10 μM, 72 hr, FIG. 1(B)
GBM cells = assay: Autophagy and ER stress markers in GBM cells (western blot); type: cell-based; conditions: for autophagy in GBM cells: GBM8401 and U87MG cells, western blot markers
Protocol: (§1) The cells were lysed in a lysis buffer (50 mM Tris-HCl, pH 7.4, 5 mM MgCl2, 1% Nonidet P-40, 150 mMNaCl, 1 mM phenylmethylsulfonyl fluoride). Total protein was isolated and subjected to SDS polyacrylamide gel electrophoresis and electrotransfered onto PVDF membranes (Millipore). Primary antibodies, including p-mTOR (Ser 2448), mTOR, PI3K (P110α), p-Akt (Ser 473), Akt, p-S6K (Ser 424), S6K, p-AMPK (Thrl72), AMPK, and CASP3, were obtained from Cell Signaling and LC3 was from Abgent, and secondary antibodies for anti-mouse and anti-rabbit horseradish preoxidase (HRP)-conjugation were from Chemicon International. The protein detection was performed with enhanced chemiluminescence (ECL™) method captured by a Luminescence Imaging System (LAS-4000™, Fuji Photo Film Co., Ltd),
(§2) We observed several protein expression changes, primarily involved in autophagic and cell growth related pathway, it was shown that GBM cells are more sensitive to agents that induce autophagy than apoptosis. Thus, we examined the PI3K-Akt-mTORcascade with known roles m regulation of autophagy.

[3] = system: U87MG sphere cells (cancer stem-like cells)
U87MG cells [4] = assay: Side population assay (flow cytometry) in U87MG; type: cell-based; conditions: 10 μM, decreased from 1.43%
Protocol: (§3) The cells were detached from the dishes with trypsin-EDTA (Invitrogen), and suspended in a single-cell suspension at 1×10^6 cells/mL in Hank's balanced salt solution (HBSS) supplemented with 3% fetal calf serum and 10 mM Hepes. The cells were then incubated at 37° C. for 90 min with 20 μg/mL Hoechst 33342 (Sigma Chemical, St. Louis, Mo.), either alone or in the presence of 50 μmol/L verapamil (Sigma), an inhibitor of the verapamil-sensitive ABC transporter. After incubation, the cells were centrifuged immediately for 5 min at 300 g and 4° C. and resuspended in ice-cold HBSS, The cells were kept on ice to inhibit efflux of the Hoechst dye, and 1 μg/mL propidium Iodide (BD) was added to discriminate dead cells. Finally, these cells were filtered through a 40 μm cell strainer (BD) to obtain a single-cell suspension. Dual-wavelength analysis and purification were performed on a dual-laser PACS. Vantage SE machine (BD). Hoechst 33342 was excited with a 355 nm UV light and emitted blue fluorescence with a 450/20 band-pass (BP) filter and red fluorescence with a 675 nm edge filter long-pass (EFLP). A 610 nm dichroic mirror short-pass (DMSP) was used to separate the emission wavelengths. Pi-positive (dead) cells were excluded from the analysis.

U87MG cells [5] = assay: U87MG subcutaneous tumor in NOD/SCID mice; type: in vivo; conditions: 5 days/week
Protocol: Female NOD/SCID, 4-6 weeks of age were purchased from the National Laboratory Animal Center (NLAC) (Taipei, Taiwan). All protocols were approved by the institutional animal care committee of Taipei Medical University Hospital Mice were inoculated with U87MG cells in the right flank of NOD/SCID mice (1×10^6 cells/100 μL PBS, subcutaneous infection) and divided into control (sham) and thioridazine-treatment groups (5 mg/kg/day, 5 days/week). N=5 in each group. Tumor burden was measured on a weekly basis using a caliper and calculated using the following formula (a×b^2)/2, where a and b represents the long and short axis of the tumor respectively.
By the end of 6 weeks, animals were humanely sacrificed and tumor biopsies were collected.

GBM8401 cells [6] = assay: Western blot analysis in GBM8401; type: cell-based; conditions: 24 hr
Protocol: as §1, §2
(§4) Pathway analysis of differentially expressed gene signatures obtained from microarray profiling was investigated via Consensus PathDB. Several thioridazine-mediated pathways were highlighted, including pathway in cancer, GPCR signaling, senescence and autophagy, DMA damage response, and G1 to S cell cycle control (FIGS. 4(A) and 4(B)). Because G-protein couple receptors (GPCR) are membrane associated proteins and have been widely recognized as drug targets. Therefore, we tested whether GPCR might be the target of thioridazine.

U87MG cells [7] = assay: Western blot analysis in U87MG; type: cell-based; conditions: 24 hr
Protocol: as §1, §2, §4

GBM8401 cells [8] = assay: Side population assay (flow cytometry) in GBM8401; type: cell-based; conditions: 10 μM, decreased from 1.26%
Protocol: as §3

primary GBM spheroids = assay: Tumor spheroid assay; type: cell-based
Protocol: For the formation of tumor spheroids, cells were cultured in HEScGRO serum-free medium (human) (Chemicon) supplemented with 20 ng/mL Hegf, 10 ng/mL hFGF-b and NeuroCult MS-A proliferation supplements. Cells were seeded at low densities (1000 cells/mL) in 12-well low adhesion plates at 1 mL, per well Spheroids (tight, spherical, non-adherent masses >90 um in diameter) were counted, and at least 50 spheroids per group were measured with an ocular micrometer. For secondary spheroid-forming assays, primary spheroids were dissociated mechanically and processed as in the primary assay. For the quantification of the percentage of spheroid-forming cells, cells were seeded at one cell per well in 96-well plates, […]

[9] = U87MG sphere cells, 10 and 20 μM, 24 hr

## fluphenazine
GBM8401 cells [1]
  cell death: dose-dependent increase in cell death
U87MG cells [2]
  cell death: dose-dependent increase in cell death
GBM cells
  autophagy in GBM cells: induce autophagye

## prochlorperazine
[3]; U87MG sphere cells, 10 and 15 μM, 24 hr
  cell viability: significantly reduced

## thioridazine
[3]; 10 µM
  cell viability: 22%
[3]; [9]
  cell viability: significantly reduced
U87MG cells [4]
  cancer stem-like cells population (side population): 0.1%
GBM8401 cells [1]
  IC50: < 10 µM
  cell death: dose-dependent increase in cell death
U87MG cells [5]; 5 mg/kg/day, end of 6 weeks
  tumor samples (biopsies) compared to control mice: significantly smaller in size and less vascularized
U87MG cells [5]; i.p. injection 5 mg/kg/day, NOD-SCID mice with U87MG cells
  tumor burden compared to vehicle control: significantly smaller
GBM8401 cells [6]; GBM8401, 10 μM
  EDNRA, GPR17, GPRC5B (GPCR) expression: down-regulated
GBM8401 cells [6]; GBM8401, 5 to 15 μM
  LC3-II and phospho-AMPK (THr172): up-regulated
  PI3K, phospho-Akt(Ser 473), phospho-mTOR(Ser 2448), phospho-S6K (Ser 424): down-regulated
U87MG cells [7]; 10 μM
  EDNRA, GPR17, GPRC5B (GPCR) expression: down-regulated
U87MG cells [7]; 5 to 15 μM
  LC3-II and phospho-AMPK (THr172): up-regulated
  PI3K, phospho-Akt(Ser 473), phospho-mTOR(Ser 2448), phospho-S6K (Ser 424): down-regulated
GBM8401 cells [8]
  cancer stem-like cells population (side population): 0.03%
U87MG cells [2]
  cell death: dose-dependent increase in cell death
GBM cells
  autophagy in GBM cells: induce autophagye
GBM cells; GBM cells
  ER stress: IRE1a and ER stress-associated proteins (Bip and CHOP): accumulation
Primary GBM spheroids
  formation of primary GBM spheroids: inhibited

## trifluoperazine
[3]; [9]
  cell viability: significantly reduced
